{"source": "patent US20140088144A1", "about": "“INHIBITING MICROBIAL INFECTIONS” (THE UNIVERSITY OF KANSAS, priority 2012, published 2014)", "key": {"VirF": {"target": "VirF (Shigella flexneri, UniProt P0A2T1)", "sequence (P0A2T1 whole entry)": "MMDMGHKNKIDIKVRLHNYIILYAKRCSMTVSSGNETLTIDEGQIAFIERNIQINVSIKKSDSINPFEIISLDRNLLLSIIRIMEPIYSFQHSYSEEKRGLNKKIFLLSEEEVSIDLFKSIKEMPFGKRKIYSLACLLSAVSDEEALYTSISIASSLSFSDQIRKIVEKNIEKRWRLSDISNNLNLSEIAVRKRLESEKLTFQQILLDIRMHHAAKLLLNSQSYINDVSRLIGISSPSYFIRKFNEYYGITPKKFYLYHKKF", "test": "Shigella virB-lacZ reporter gene assay", "format": "cell-based, S. flexneri", "set-up": "endogenously expressed VirF in a Shigella strain carrying a virB-lacZ reporter construct; endogenous in cells; host or cells: S. flexneri strain BS536 (virB-lacZ)", "method": "Colonies of S. flexneri strain BS536 that were red on TSA plates containing Congo red were grown overnight in Luria-Bertani broth at 30° C. to maintain low basal expression from the virB promoter. The overnight grown cultures were diluted 1:100 into 10 ml of the same medium with either 0.3% DMSO or different concentrations of SE-1 dissolved in DMSO (final concentration 0.3% DMSO). Cultures were grown at 37° C. in a shaking incubator to an OD600 of ˜0.4, centrifuged to pellet the cells and then resuspended in Z buffer for a two-fold concentration of the cells. Control cultures were grown at 30° C., a temperature at which virF expression is not induced (37), to illustrate the basal level of expression from the virB promoter region. β-Galactosidase assays were performed, with incubation with the substrate o-nitrophenyl-β-D-galactopyranoside (ONPG) was at room temperature. Activities are presented as a percentage of the uninhibited, DMSO-only control sample. Three independent assays were performed with two replicates in each assay."}, "MBP-NS1-NTD": {"test_system": "MBP-NS1-NTD", "test": "Fluorescence-based thermal shift assay (Sypro Orange), control protein", "format": "binding", "conditions": "0 or 80 μM SE-1, 1 μM protein", "method": "Binding of SE-1 to purified VirF was tested by comparing the VirF melting temperature (Tm) in the absence and presence of SE-1 using a thermal shift assay with the fluorescent dye Sypro Orange (Molecular Probes). This method is also known as differential scanning fluorimetry or DSF. As a control, we tested binding of SE-1 to the purified, unrelated, MBP-NS1-NTD protein (greater than 95% pure). Reactions contained (final concentrations): 1 μM protein; 20×Sypro Orange (a 250-fold dilution of the purchased 5,000× stock solution); 0.76×EMSA buffer (7.6 mM Tris-acetate, pH 7.4, 0.76 mM KEDTA, 38 mM KCl, and 0.76 mM DTT); 4% DMSO; and 0 or 80 μM SE-1. The reactions were carried out in 0.1 ml PCR low profile 8-tube strips with optically clear flat caps (USA Scientific) in a StepOnePlus™ Real-Time PCR System (Applied Biosystems), heating from 25 to 99° C. in increments of 0.8° C. The data was analyzed using the Boltzmann sigmoidal model in the software Prism (GraphPad). Data points before and after the fluorescence intensity minimum and maximum, respectively, were excluded from fitting. The ΔTm values are the average of three independent experiments with two replicates in each experiment. A single, representative, experiment is shown."}, "[1]": {"test_system": "Shigella invasion of L-929 cells", "test": "Shigella invasion assay (gentamycin protection) in L-929 cells", "format": "cell-based, S. flexneri", "conditions": "for invasion decrease relative to no inhibitor: Shigella pre-grown with SE-1", "method": "S. flexneri ipgD^− (SME4331) and mxiH^− (SB116) mutant strains were grown overnight at 30° C. and then diluted to an OD600 of ˜0.1 into TSB plus ampicillin. SE-1 (in DMSO) was added to the cultures at final concentrations of 0, 20, or 40 μM SE-1 and 0.3% DMSO. These cultures and SB116 (no SE-1) were grown at 37° C. in 24-well plates (each with 1.2 ml), in the temperature-controlled chamber of a PowerWave XS plate reader (BioTek Instruments). Bacterial growth was continued at 37° C. with shaking and OD600 monitored every 15 min. A separate sample of SME4331 was grown at 30° C. L-929 cells (mouse fibroblasts, used previously for Shigella invasion assays) that had been grown overnight to ˜90% confluency in 24-well plates were washed 3 times with 1 ml of RPMI each (without FBS or antibiotics), and the final wash was removed by aspiration. (All L-929 incubation steps were carried out at 37° C. in a 5% CO2 humidified atmosphere.) When the OD600 of the bacterial cultures reached 1.0 (˜2.5 h), samples were diluted 100-fold in pre-warmed RPMI (without FBS or antibiotics) and then 300 μl was added to each monolayer of L-929 cells, for a multiplicity of infection of roughly 20. In a control sample, 40 μM SE-1 and bacteria grown at 37° C. without SE-1 were added at the same time to L-929 cells. The 24-well plate was centrifuged (2000×g) for 5 min at room temperature to initiate bacterial-host cell contact, incubated for 45 min at 37° C., washed three times with 1 ml RPMI containing 50 μg/ml gentamycin (or without gentamycin for the control), and incubated at 37° C. for 2 h. Cells were again washed three times with 1 ml RPMI and then lysed in 100 μl of PBS (Mediatech) containing 0.1% triton X-100 (Promega, Madison, Wis.) for 10 min at room temperature. The 100 μl lysates from the gentamycin treated and untreated L-929 cells were mixed with 400 μl TSB, and 100 μl of 1:50 and 1:250 further dilutions were plated onto TSB agar containing ampicillin. Plates were incubated overnight at 37° C. and colonies were counted. The number of colonies obtained from gentamycin treated samples was divided by the number of colonies from control samples without gentamycin and multiplied by 100 to calculate the invasion index."}, "Shigella": {"test_system": "Shigella", "test": "Shigella growth", "format": "cell-based, S. flexneri"}}, "data": [{"smiles": "CCCCN1C=C(c2ccc3ccccc3n2)C(C[N+](=O)[O-])c2ccccc21", "note": "(stereo not shown) [Compound 1, 1-butyl-4-(nitromethyl)-3-quinolin-2-yl-4H-quinoline]", "values": [{"measurement": "IC50", "setting": "VirF", "value": "~30", "unit": "µM"}, {"measurement": "maximum inhibition of virB-lacZ expression", "setting": "VirF; 40 μM SE-1", "value": "greater than two fold"}, {"measurement": "change in melting temperature of MBP-NS1-NTD", "setting": "MBP-NS1-NTD", "value": 0.15, "unit": "°C"}, {"measurement": "invasion decrease relative to no inhibitor", "setting": "[1]; 20 μM", "value": 1.7, "unit": "fold"}, {"measurement": "invasion when SE-1 and Shigella added at the same time to L-929 cells", "setting": "[1]; 40 μM SE-1, Shigella grown at 37° C. without inhibitor", "value": "invaded to the same extent"}, {"measurement": "invasion decrease relative to no inhibitor", "setting": "[1]; 40 μM", "value": 3, "unit": "fold"}, {"measurement": "inhibition at 40 µM", "setting": "[1]; Shigella, L929, read-out: maximum inhibition of invasion", "value": 70, "unit": "%"}, {"measurement": "growth of S. flexneri samples", "setting": "Shigella; 80 μM SE-1, virB-lacZ strain", "value": "exhibited growth defects"}, {"measurement": "decrease in the Shigella growth rate", "setting": "Shigella; concentrations up to 40 μM, SME4331", "value": "no detectable decrease"}, {"measurement": "Shigella growth rate", "setting": "Shigella; strain M90T, invasion study with human epithelial cells", "value": "not the Shigella growth rate"}]}]}
